Test results: patent EP4389751A1, “HETEROCYCLIC COMPOUNDS AND USES THEREOF” (Kumquat Biosciences Inc., priority 2021, dated 2024)
Where two headings read alike, the source gives them in different places.

Assays:
[1] = test system: GP2D cells; assay: Cell proliferation assay (CellTiter-Glo), K-Ras G12D cells; format: cell-based; settings: read-out: Inhibition of GP2D Cells (IC50)
Description: ASPC-1 (ATCC CRL-1682), Panc-10.05 (ATCC CRL-2547), A427, and GP2D (Sigma 95090714) cell lines comprise a G12D mutation and can be used to assess Ras cellular signaling in vitro, e.g., in response to the compounds herein. […] ASPC-1 culture medium is prepared with RPMI-1640 and 10% heat-inactivated FBS. Panc-10.05 culture medium is prepared with RPMI-1640, 10 Units/ml human recombinant insulin, and 10% FBS. A427 cell culture is prepared with RPMI-1640 and 10% heat-inactivated FBS. GP2D culture medium is prepared with DMEM with 2mM glutamine and 10% heat-inactivated FBS. A Cell Titer-Glo (CTG) luminescent based assay (Promega) is used to assess growth of the cells, as a measurement of the ability of the compounds herein to inhibit Ras signaling in the cells. The cells (e.g., 800 per well) are seeded in their respective culture medium in standard tissue culture-treated 384-well format plates (Falcon #08-772-116) or ultra-low attachment surface 384-well format plates (S-Bio # MS-9384UZ ). The day after plating, cells are treated with a dilution series (e.g., a 9 point 3-fold dilution series) of the compounds herein (e.g., approximately 40 µl final volume per well). Cell viability can be monitored (e.g., approximately 5 days later) according to the manufacturer's recommended instructions, where the CellTiter-Glo reagent is added (e.g., approximately 10 µl), vigorously mixed, covered, and placed on a plate shaker (e.g., approximately for 20 min) to ensure sufficient cell lysis prior to assessment of luminescent signal. The IC50 values are determined using the four parameter fit. The resulting IC50 value is a measurement of the ability of the compounds herein to reduce cell growth of Ras-driven cells (e.g., tumor cell lines) in vitro and/or in vivo.

[2] = target: T1, K-Ras G12S (Homo sapiens, UniProt P01116, G12S); assay: HTRF assay of the K-Ras / SOS1 interaction; format: biochemical; settings: IC50 (against K-Ras G12D) to IC50 (against K-Ras G12S)
T1 construct: made in house; host or cells: E. coli (e.g., BL21 (DE3))
Outline: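 Compounds (duplicates, 10 µM to 0.01 µM) were incubated ≥~10 min with Eu-labelled GST-K-Ras G12S and XL665-labelled His-hSOS1 in HEPES pH 7.4 buffer containing NaCl, DTT, BSA and Igepal. Disruption measured as HTRF emission ratio 665/620 nm, fitted to IC50.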

T1 sequence (P01116 1-188 isoform P01116-2 G12S): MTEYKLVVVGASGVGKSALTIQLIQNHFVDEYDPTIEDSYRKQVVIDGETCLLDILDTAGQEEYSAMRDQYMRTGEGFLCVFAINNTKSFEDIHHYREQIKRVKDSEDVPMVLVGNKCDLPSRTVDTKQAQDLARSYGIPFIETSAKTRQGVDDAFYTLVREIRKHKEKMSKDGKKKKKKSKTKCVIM

SMILES | IC50 ([1]; GP2D cells (K-Ras G12D)) | Ratio of IC50 KRAS G12D vs. IC50 KRAS G12S [2] | IC50 ([1]; GP2d)
Nc1nc2c(-c3c(Cl)cc4c(N5CCC56CCN(C(=O)n5cncn5)CC6)nc(OC[C@@]56CCCN5C[C@H](F)C6)nc4c3F)ccc(F)c2s1 [Compound A288, (1-(7-(2-amino-7-fluorobenzo[d]thiazol-4-yl)-6-chloro-8-fluoro-2-(((2R,7aS)-2-fluorotetrahydro-1H-pyrrolizin-7a(5H)-yl)methoxy)quinazolin-4-yl)-1,7-diazaspiro[3.5]nonan-7-yl)(1H-1,2,4-triazol-1-yl)methanone] | 1 to 10 µM | A (A: indicates that the ratio of IC50 against KrasG12D vs. IC50 against KrasG12S is 1-fold or greater) | 
Nc1nc2c(-c3c(Cl)cc4c(N5CC6CCC(C5)N6C(=O)n5cnc(F)c5)nc(OC[C@@]56CCCN5C[C@H](F)C6)nc4c3F)ccc(F)c2s1 [Compound A135, (3-(7-(2-amino-7-fluorobenzo[d]thiazol-4-yl)-6-chloro-8-fluoro-2-(((2R,7aS)-2-fluorotetrahydro-1H-pyrrolizin-7a(5H)-yl)methoxy)quinazolin-4-yl)-3,8-diazabicyclo[3.2.1]octan-8-yl)(4-fluoro-1H-imidazol-1-yl)methanone] |  | A (A: indicates that the ratio of IC50 against KrasG12D vs. IC50 against KrasG12S is 1-fold or greater) | ≤ 1 µM
C[C@@H]1CN(C(=O)n2cncn2)[C@@H](C)CN1c1nc(OC[C@@]23CCCN2C[C@H](F)C3)nc2c(F)c(-c3ccc(F)c4sc(N)nc34)c(Cl)cc12 [Compound A244, ((2S,5R)-4-(7-(2-amino-7-fluorobenzo[d]thiazol-4-yl)-6-chloro-8-fluoro-2-(((2R,7aS)-2-fluorotetrahydro-1H-pyrrolizin-7a(5H)-yl)methoxy)quinazolin-4-yl)-2,5-dimethylpiperazin-1-yl)(1H-1,2,4-triazol-1-yl)methanone] | 1 to 10 µM | A (A: indicates that the ratio of IC50 against KrasG12D vs. IC50 against KrasG12S is 1-fold or greater) | 
Nc1nc2c(-c3c(Cl)cc4c(NC5CCN(C(=O)n6ccnc6)CC5)nc(OC[C@@]56CCCN5C[C@H](F)C6)nc4c3F)ccc(F)c2s1 [Compound A117, (4-((7-(2-amino-7-fluorobenzo[d]thiazol-4-yl)-6-chloro-8-fluoro-2-(((2R,7aS)-2-fluorotetrahydro-1H-pyrrolizin-7a(5H)-yl)methoxy)quinazolin-4-yl)amino)piperidin-1-yl)(1H-imidazol-1-yl)methanone] | 1 to 10 µM | A (A: indicates that the ratio of IC50 against KrasG12D vs. IC50 against KrasG12S is 1-fold or greater) | 
Nc1nc2c(-c3c(Cl)cc4c(N5CC6CCC(C5)N6C(=O)Nc5cncnc5)nc(OC[C@@]56CCCN5C[C@H](F)C6)nc4c3F)ccc(F)c2s1 [Compound A124, 3-(7-(2-amino-7-fluorobenzo[d]thiazol-4-yl)-6-chloro-8-fluoro-2-(((2R,7aS)-2-fluorotetrahydro-1H-pyrrolizin-7a(5H)-yl)methoxy)quinazolin-4-yl)-N-(pyrimidin-5-yl)-3,8-diazabicyclo[3.2. 1]octane-8-carboxamide] |  | A (A: indicates that the ratio of IC50 against KrasG12D vs. IC50 against KrasG12S is 1-fold or greater) | ≤ 1 µM
N#Cc1nccn1C(=O)N1CC2CCC(C1)N2c1nc(OC[C@@]23CCCN2C[C@H](F)C3)nc2c(F)c(-c3ccc(F)c4sc(N)nc34)c(Cl)cc12 [Compound A238, 1-(8-(7-(2-amino-7-fluorobenzo[d]thiazol-4-yl)-6-chloro-8-fluoro-2-(((2R,7aS)-2-fluorotetrahydro-1H-pyrrolizin-7a(5H)-yl)methoxy)quinazolm-4-yl)-3,8-diazabicyclo[3.2. 1]octane-3-carbonyl)-1H-imidazole-2-carbonitrile] | ≤ 1 µM | A (A: indicates that the ratio of IC50 against KrasG12D vs. IC50 against KrasG12S is 1-fold or greater) | 
Nc1nc2c(-c3c(Cl)cc4c(N5CC6CCC(C5)N6C(=O)n5cc(F)cn5)nc(OC[C@@]56CCCN5C[C@H](F)C6)nc4c3F)ccc(F)c2s1 [Compound A101, (3-(7-(2-amino-7-fluorobenzo[d]thiazol-4-yl)-6-chloro-8-fluoro-2-(((2R,7aS)-2-fluorotetrahydro-1H-pyrrolizin-7a(5H)-yl)methoxy)quinazolin-4-yl)-3,8-diazabicyclo[3.2.1]octan-8-yl)(4-fluoro-1H-pyrazol-1-yl)methanone] |  | A (A: indicates that the ratio of IC50 against KrasG12D vs. IC50 against KrasG12S is 1-fold or greater) | 1 to 10 µM
N#Cc1c(N)sc2c(F)ccc(-c3c(Cl)cc4c(N5CC6CCC(C5)N6C(=O)n5cccc5C#N)nc(OC[C@@]56CCCN5C[C@H](F)C6)nc4c3F)c12 [Compound A138, 1-(3-(7-(2-amino-3-cyano-7-fluorobenzo[b]thiophen-4-yl)-6-chloro-8-fluoro-2-(((2R,7aS)-2-fluorotetrahydro-1H-pyrrolizin-7a(5H)-yl)methoxy)quinazolin-4-yl)-3,8-diazabicyclo[3.2. 1]octane-8-carbonyl)-1H-pyrrole-2-carbonitrile] |  | A (A: indicates that the ratio of IC50 against KrasG12D vs. IC50 against KrasG12S is 1-fold or greater) | ≤ 1 µM
Nc1nc2c(-c3c(Cl)cc4c(NC5CCN(C(=O)n6cc(F)cn6)CC5)nc(OC[C@@]56CCCN5C[C@H](F)C6)nc4c3F)ccc(F)c2s1 [Compound A291, (4-((7-(2-amino-7-fluorobenzo[d]thiazol-4-yl)-6-chloro-8-fluoro-2-(((2R,7aS)-2-fluorotetrahydro-1H-pyrrolizin-7a(5H)-yl)methoxy)quinazolin-4-yl)amino)piperidin-1-yl)(4-fluoro-1H-pyrazol-1-yl)methanone] | 1 to 10 µM | A (A: indicates that the ratio of IC50 against KrasG12D vs. IC50 against KrasG12S is 1-fold or greater) | 
N#Cc1c(N)sc2c(F)ccc(-c3c(Cl)cc4c(C5C[C@H]6CC[C@@H](C5)N6C(=O)n5cncn5)nc(OC[C@@]56CCCN5C[C@H](F)C6)nc4c3F)c12 (stereo partly drawn) [Compound A235, 4-(4-((1R,5S)-8-(1H-1,2,4-triazole-1-carbonyl)-8-azabicyclo[3.2.1]octan-3-yl)-6-chloro-8-fluoro-2-(((2R,7aS)-2-fluorotetrahydro-1H-pyrrolizin-7a(5H)-yl)methoxy)quinazolin-7-yl)-2-amino-7-fluorobenzo[b]thiophene-3-carbonitrile] | 1 to 10 µM | A (A: indicates that the ratio of IC50 against KrasG12D vs. IC50 against KrasG12S is 1-fold or greater) | 
N#Cc1c(N)sc2c(F)ccc(-c3c(Cl)cc4c(O[C@H]5C[C@H]6CC[C@@H](C5)N6C(=O)n5cncn5)nc(OC[C@@]56CCCN5C[C@H](F)C6)nc4c3F)c12 [Compound A300, 4-(4-(((1R,3r,5S)-8-(1H-1,2,4-triazole-1-carbonyl)-8-azabicyclo[3.2.1]octan-3-yl)oxy)-6-chloro-8-fluoro-2-(((2R,7aS)-2-fluorotetrahydro-1H-pyrrolizin-7 a(5H)-yl)methoxy)quinazolin-7-yl)-2-amino-7-fluorobenzo[b]thiophene-3-carbonitrile] |  | A (A: indicates that the ratio of IC50 against KrasG12D vs. IC50 against KrasG12S is 1-fold or greater) | 1 to 10 µM
Nc1nc2c(-c3c(Cl)cc4c(N5CCC6(CC5)CN(C(=O)n5cnc(F)c5)C6)nc(OC[C@@]56CCCN5C[C@H](F)C6)nc4c3F)ccc(F)c2s1 [Compound A303, (7-(7-(2-amino-7-fluorobenzo[d]thiazol-4-yl)-6-chloro-8-fluoro-2-(((2R,7aS)-2-fluorotetrahydro-1H-pyrrolizin-7a(5H)-yl)methoxy)quinazolin-4-yl)-2,7-diazaspiro[3.5]nonan-2-yl)(4-fluoro-1H-imidazol-1-yl)methanone] | 1 to 10 µM | A (A: indicates that the ratio of IC50 against KrasG12D vs. IC50 against KrasG12S is 1-fold or greater) | 
N#Cc1cnn(C(=O)N2CCC(Nc3nc(OC[C@@]45CCCN4C[C@H](F)C5)nc4c(F)c(-c5ccc(F)c6sc(N)nc56)c(Cl)cc34)CC2)c1 [Compound A151, 1-(4-((7-(2-amino-7-fluorobenzo[d]thiazol-4-yl)-6-chloro-8-fluoro-2-(((2R,7aS)-2-fluorotetrahydro-1H-pyrrolizin-7a(5H)-yl)methoxy)quinazolin-4-yl)amino)piperidine-1-carbonyl)-1H-pyrazole-4-carbonitrile] | 1 to 10 µM | A (A: indicates that the ratio of IC50 against KrasG12D vs. IC50 against KrasG12S is 1-fold or greater) | 
